Laboratory results reported in US10538512B2, “Aminoacylindazole immunomodulators for treatment of autoimmune diseases” (The Rockefeller University, priority 2016, dated 2020).
pIC50: −log10 of the molar value. Blank lines part the entries; values can stand above or below the compound they belong to.

How the values were obtained:
[1] = molecular target: T1, Human FXIIa (Homo sapiens, UniProt P00748); assay: Factor XIIa (FXIIa) inhibitory activity, chromogenic substrate assay; type: biochemical; conditions: Human FXIIa 12.5 nM, Pefachrome XIIa 400 μM, 10 min preincubation
T1 construct: active coagulation factor XII (FXIIa); purchased Enzyme Research Labs
T1 sequence (P00748 373-615 limits assumed): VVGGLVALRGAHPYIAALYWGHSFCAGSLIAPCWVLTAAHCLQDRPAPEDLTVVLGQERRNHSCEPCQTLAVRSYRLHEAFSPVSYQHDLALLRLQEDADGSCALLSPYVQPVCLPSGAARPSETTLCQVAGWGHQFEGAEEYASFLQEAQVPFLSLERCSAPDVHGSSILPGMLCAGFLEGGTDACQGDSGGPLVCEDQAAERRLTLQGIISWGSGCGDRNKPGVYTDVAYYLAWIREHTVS
T1 sequence (P00748 20-372 partner limits assumed): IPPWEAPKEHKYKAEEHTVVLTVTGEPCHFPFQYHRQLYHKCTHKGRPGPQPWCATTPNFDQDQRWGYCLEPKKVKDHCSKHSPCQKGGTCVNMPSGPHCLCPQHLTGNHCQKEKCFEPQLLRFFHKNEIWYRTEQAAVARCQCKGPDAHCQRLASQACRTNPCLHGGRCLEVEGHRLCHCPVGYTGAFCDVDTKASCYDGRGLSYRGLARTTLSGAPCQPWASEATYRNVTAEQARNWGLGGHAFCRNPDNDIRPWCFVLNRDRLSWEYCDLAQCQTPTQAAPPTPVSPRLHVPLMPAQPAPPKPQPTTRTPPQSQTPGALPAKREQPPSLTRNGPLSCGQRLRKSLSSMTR
How it was run: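 Buffer was 0.5× HBSS with 25 mM HEPES pH 7.4 and 0.5× TBS-Tween 0.05%. Enzyme and compound (about 1–100 μM) were preincubated 10 min at room temperature, then Pefachrome XIIa was added at 400 μM final. Substrate cleavage was followed as the rate of A405 change at 37 °C.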

[2] = molecular target: T2, Human alpha-thrombin (Homo sapiens, UniProt P00734); assay: Thrombin counterscreen for selectivity, fluorogenic substrate assay; type: biochemical; conditions: Human alpha-thrombin 12.5 nM, Boc-Val-Pro-Arg-AMC 20 μM, 10 min preincubation
T2 construct: Human alpha-thrombin (Enzyme Research Labs); purchased Enzyme Research Labs
How it was run: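 Compounds, about 1–100 μM, preincubated 10 min at room temperature with enzyme, then Boc-Val-Pro-Arg-AMC added at 20 μM final.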

SMILES: CS(=O)(=O)N1CCC(C(=O)n2nc3c(c2N)CCCC3)c2ccccc21 (stereo not drawn) [Example 99, (3-amino-4,5,6,7-tetrahydroindazol-2-yl)(1-(methylsulfonyl)-1,2,3,4-tetrahydroquinolin-4-yl)methanone]
- pIC50 [1]: 6.00
- pIC50 [2]: 4.66

SMILES: COC1CCc2c(c(N)nn2C(=O)c2cccc3[nH]c(C)cc23)C1 (stereo not drawn) [Example 120, (3-amino-5-methoxy-4,5,6,7-tetrahydro-2H-indazol-1-yl)(2-methyl-1H-indol-4-yl)methanone]
- pIC50 [1]: 5.00
- pIC50 [2]: < 4.10

SMILES: Cc1cc2c(C(=O)n3nc(N)c4c3CCC(F)(F)C4)cccc2[nH]1 [Example 122, (3-amino-5,5-difluoro-4,5,6,7-tetrahydro-2H-indazol-1-yl)(2-methyl-1H-indol-4-yl)methanone]
- pIC50 [1]: 6.15
- pIC50 [2]: 4.60

SMILES: Nc1nn(C(=O)c2ccnc3cc(Cl)ccc23)c2c1CCCC2 [Example 124, (3-amino-4,5,6,7-tetrahydro-2H-indazol-1-yl)(7-chloroquinolin-4-yl)methanone]
- pIC50 [1]: 4.22
- pIC50 [2]: 4.22

SMILES: CCc1ccccc1C(=O)n1nc(N)c2c1CCCC2 [Example 152]
- pIC50 [1]: 4.60
- pIC50 [2]: < 4.00

SMILES: Cc1[nH]c2ccccc2c1C(=O)n1nc(N)c2c1CCCC2 [Example 154]
- pIC50 [1]: 4.77
- pIC50 [2]: < 4.30

SMILES: Nc1nn(C(=O)c2cccc3[nH]ncc23)c2c1CCCC2 [Example 157]
- pIC50 [1]: 4.52
- pIC50 [2]: < 4.00

Compounds with a higher pIC50 [1], results first:

- pIC50 [1]: 6.30
- pIC50 [2]: < 4.10
SMILES: Cc1cc2c(s1)CCCC2C(=O)n1nc2c(c1N)CCCC2 (stereo not drawn) [Example 86, (3-amino-4,5,6,7-tetrahydroindazol-2-yl)(2-methyl-4,5,6,7-tetrahydrobenzo[b]thiophen-4-yl)methanone]

- pIC50 [1]: 6.40
- pIC50 [2]: 4.52
SMILES: Cc1cc2c(o1)CCCC2C(=O)n1nc2c(c1N)CCCC2 (stereo not drawn) [Example 85, (3-amino-4,5,6,7-tetrahydro-2H-indazol-2-yl)(2-methyl-4,5,6,7-tetrahydrobenzofuran-4-yl)methanone]

- pIC50 [1]: 6.52
- pIC50 [2]: 4.74
SMILES: Cc1cc2c(n1S(C)(=O)=O)CCCC2C(=O)n1nc2c(c1N)CCCC2 (stereo not drawn) [Example 90, (3-amino-4,5,6,7-tetrahydroindazol-2-yl)(2-methyl-1-(methylsulfonyl)-4,5,6,7-tetrahydro-1H-indol-4-yl)methanone]

- pIC50 [1]: 7.22
- pIC50 [2]: < 4.00
SMILES: Cc1cc2c(C(=O)n3nc4c(c3N)CC(O)CC4)cccc2[nH]1 (stereo not drawn) [Example 161]

- pIC50 [1]: 7.70
- pIC50 [2]: 5.05
SMILES: Cc1cc2c(C(=O)n3nc4c(c3N)CC(F)(F)CC4)cccc2[nH]1 [Example 121, (3-amino-5,5-difluoro-4,5,6,7-tetrahydro-2H-indazol-2-yl)(2-methyl-1H-indol-4-yl)methanone]
